Results reported in BindingDB's records for doi:10.1016/j.ejmech.2017.02.004 (China Pharmaceutical University, 2017).

How the values were obtained:
[1] = Substrate activity at CPR in human L02 cells assessed as CPR-mediated one-electron reduction of compound by measuring cell growth inhibition treated for 24 hrs measured after 72 hrs by MTT assay
[2] = Substrate activity at NQO1 in human A549 cells assessed as NQO1-mediated two-electron reduction of compound by measuring cell growth inhibition treated for 24 hrs measured after 72 hrs by MTT assay
[3] = Substrate activity at NQO1 in human HepG2 cells assessed as NQO1-mediated two-electron reduction of compound by measuring cell growth inhibition treated for 24 hrs measured after 72 hrs by MTT assay
[4] = Substrate activity at NQO1 in human MCF7 cells assessed as NQO1-mediated two-electron reduction of compound by measuring cell growth inhibition treated for 24 hrs measured after 72 hrs by MTT assay
[5] = Substrate activity at NQO1 in human H522 cells assessed as NQO1-mediated two-electron reduction of compound by measuring cell growth inhibition treated for 24 hrs measured after 72 hrs by MTT assay
[6] = Substrate activity at NQO1 in human H1299 cells assessed as NQO1-mediated two-electron reduction of compound by measuring cell growth inhibition treated for 24 hrs measured after 72 hrs by MTT assay
[7] = Substrate activity at NQO1 in human HCT116 cells assessed as NQO1-mediated two-electron reduction of compound by measuring cell growth inhibition treated for 24 hrs measured after 72 hrs by MTT assay
[8] = Substrate activity at NQO1 in human H1650 cells assessed as NQO1-mediated two-electron reduction of compound by measuring cell growth inhibition treated for 24 hrs measured after 72 hrs by MTT assay

Structure (SMILES) | IC50 [1] | IC50 [2] | other results
Cc1ccc2c(c1)-c1occ(C)c1C(=O)C2=O | 6.3 µM | 4.1 µM | 
Cc1cc2c(cc1C)-c1occc1C(=O)C2=O |  | 3.1 µM | 
CCc1coc2c1C(=O)C(=O)c1cc(C)ccc1-2 | 25 µM | 3.1 µM | 
COc1ccc2c(c1)C(=O)C(=O)C1=C2OC(C)C1(C)C (centres undefined) | 30 µM |  | 
COc1ccc2c(c1)C1=C(C(=O)C2=O)C(C)(C)C(C)O1 (centres undefined) |  | 5.8 µM | 
COc1cccc2c1C1=C(C(=O)C2=O)C(C)(C)C(C)O1 (centres undefined) | 19 µM |  | 

Further lines, with some results ahead:

IC50 [1] | IC50 [2] | Structure (SMILES) | other results
17 µM | 2.9 µM | Cc1coc2c1C(=O)C(=O)c1c(C)ccc(C)c1-2 | 
 | 3.3 µM | Cc1cc2c(cc1C)-c1occ(C)c1C(=O)C2=O | IC50 [3]: 2500 nM; IC50 [4]: 2400 nM; IC50 [5]: 4.8 µM; IC50 [6]: 4.9 µM; IC50 [7]: 4.4 µM; IC50 [8]: 9.3 µM
22 µM | 8.5 µM | Cc1ccc2c(c1)C(=O)C(=O)c1c(C)coc1-2 | 
